Where two headings read alike, the source gives them in different places. Values belong to the compound of their own block, whether it stands above or below them. Where a SMILES comes first, the peptide text is derived from it. [ ]: non-standard residue; d: D form. βAla = NCCC(=O)O
Key:
[1] = Soluble peptide degradation, Media condition (cell-conditioned media, LC-MS); assay type: in vitro ADME, human; settings: for remaining at 24 h, 50 µM / remaining at 24 h: human
In short: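 Pooled peptide library added to medium conditioned by hUVECs or hMSCs with cells removed. Fraction remaining after 24 h measured by LC-MS (positive-ion ESI). Value is peptide peak area relative to 50 µM non-degradable βFβA6 internal standard.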

[2] = system: T1, MMP-14; test: Peptide degradation with added exogenous recombinant MMP-14 (LC-MS); assay type: in vitro ADME; settings: human
T1 construct: purchased antibodies.com
Experimental: (§1) To verify that MMP‐14 can degrade the KLVAD‐LM and PanMMP peptides, recombinant MMP‐14 was added to the different peptides, both in PBS and in the Cell and Media culture conditions (Figure 7 ). Peptides were incubated under three conditions: in fresh cell culture media (“Blank”), in media with cells present (“Cells”), and in cell‐conditioned media (“Media”). This was done for both hMSCs and hUVECs, and was also done with and without the addition of exogenous MMP.
(§2) The extent of peptide degradation was quantified for samples both with and without the addition of exogenous MMP‐14. […] Error bars indicate ± standard deviation, N = 3 with technical triplicates.
(§3) hUVECs (75000 per well) or hMSCs (36000 per well) were seeded into a 48 well plate, and 500 µL media was added to the wells. […] The peptide libraries were dissolved at a stock solution of 10 mM total peptide content. For libraries containing 38 peptides, 95 µL of the stock solution was added to each well; for libraries with 19 peptides, 47.5 µL was added to each well, and media was taken at 0 and 24 h. Add 4 µL of acetic acid to all collected media in the LC‐MS plates and store them in a −80 °C freezer to prevent further proteolytic degradation. From each sample, 10 µL of crude solution was introduced by the LC‐MS through a Thermo Scientific Vanquish LC System (Thermo Fisher Scientific), which outputted to a Thermo Scientific LTQ XL Linear Ion Trap Mass Spectrometer (Thermo Fisher Scientific). The sampled mixture was trapped on a column (ProntoSIL C18 AQ, 120 Å, 3 µm, 2.0 x 50 mm HPLC Column, PN 0502F184PS030, MAC‐MOD Analytical Inc.). The samples were loaded onto the column with a solvent containing acetonitrile/water, 5:95 (v/v) containing 1% acetic acid at a flow rate of 300 µL min^−1 and held for 1 min. The sample was then eluted from the column with a linear gradient of 5–40% Solvent B (1% acetic acid in acetonitrile) at the same flow rate for 5 min. This was followed by a 1 min ramp up to 100% Solvent B, where it was re‐equilibrated with Solvent A (1% acetic acid) to 5% solvent B over the course of 1 min and held there for 2 min. The column temperature was kept at a constant 29 °C, and the mass spectrometer was operated in positive ion mode. Using a Heated ESI, the Source Voltage was set to 4.1 kV, and the capillary temperature was 350 °C. For non‐library degradation studies, 2.5 µL of 10 mM peptide stock solution for each peptide was added.
(§4) To assess the activity of the conditioned media, the media were divided into two equal portions. One portion was used for a standard degradation study, while the other was cultured for an additional 24 h before the PanMMP and KLVADLMASAE were added. After 24 h of incubation, the media were collected for further analysis. To assess the impact of recombinant MMP‐14 on PanMMP and KLVADLMASAE, recombinant MMP‐14 (antibodies.com) was dissolved in the media at a concentration of 0.5 nM. The remaining steps followed the standard degradation study protocol.
(§5) For all degradation studies using soluble peptides, a non‐proteolytically degradable NH2‐βFβAβAβAβAβAβA‐amide (βFβA6) peptide, where βF is β‐phenylalanine and βA is β‐alanine, was added at a 50 µM concentration and used as an internal standard. Peptide degradation ratios were measured by LC‐MS and analyzed by Xcalibur. The relative concentrations of the peptide were calculated by the ratio of the peak area of the peptide and the peak area of βFβA6.

[3] = system: hUVECs; test: Soluble peptide degradation, Cells condition (LC-MS); assay type: in vitro ADME, human; settings: 24 h, LC-MS; for Fraction of peptide remaining after 24 hours: hUVEC Cells: ratio to βFβA6
In short: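 Pooled synthetic TAILS-derived peptides added to hUVEC or hMSC cultures (Cells) or cell-free conditioned media (Media); MMP-14 inhibitor NSC 405 020 at 10 µM final. Samples taken at 0 and 24 h, acidified, analysed by LC-MS; peak areas normalised to 50 µM βFβA6 internal standard, 24 h/0 h gives fraction remaining.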

[4] = biological target: T2, recombinant MMP‐14 (Homo sapiens, UniProt P50281); test: Peptide degradation with added exogenous recombinant MMP-14 (LC-MS); assay type: in vitro ADME; settings: fresh cell culture media (both hMSC and hUVEC media), no cell contact, recombinant MMP-14 0.5 nM, 24 h, LC-MS
T2 construct: purchased antibodies.com
Experimental: as §1, §2, §3, §4, §5

[5] = Peptide stability in fresh cell culture media (Blank); assay type: in vitro ADME; settings: no cell contact, 24 h, LC-MS
Experimental: as §1, §2
hUVECs (75000 per well) or hMSCs (36000 per well) were seeded into a 48 well plate, and 500 µL media was added to the wells. […] The peptide libraries were dissolved at a stock solution of 10 mM total peptide content. […]
as §5

[6] = Figure 3C, individually synthesized soluble peptide, 50 µM, hUVEC-conditioned media without cells, 24 h, LC-MS, ratio to βFβA6, N = 6
[7] = Figure 2B heatmap, pooled TAILS-derived soluble peptides in 24 h hUVEC-conditioned media without cells, 24 h, LC-MS, ratio to βFβA6 internal standard, 24 h / 0 h, N = 5, read-out: Fraction of peptide remaining at 24 hours: hUVEC Media

- degraded across all Media conditions [1]: less than 10%
- remaining at 24 h, 50 µM ([1]; cells or culture medium): 93%
- remaining at 24 h, 50 µM ([2]; cells or culture medium, peptide remaining in hMSC conditioned media with added MMP‐14): 76%
- remaining at 24 h, 50 µM ([2]; cells or culture medium, peptide remaining in hUVEC conditioned media with added MMP‐14): 69%
Structure (SMILES): CSCC[C@H](NC(=O)[C@H](CC(C)C)NC(=O)[C@H](CC(=O)O)NC(=O)[C@H](C)NC(=O)[C@@H](NC(=O)[C@H](CC(C)C)NC(=O)[C@H](CCCCN)NC(=O)CCNC(C)=O)C(C)C)C(=O)N[C@@H](C)C(=O)N[C@@H](CO)C(=O)N[C@@H](C)C(=O)N[C@@H](CCC(=O)O)C(=O)NCCC(N)=O [KLVAD-LM] (Ac-[βAla]KLVADLMASAE[βAla]-NH2)

- Fraction of peptide remaining after 24 hours: hUVEC Cells ([3]; Figure 3C, individually synthesized soluble peptide, 50 µM, media on hUVECs, N = 6): 0.77
- degradation after 24 h, Cells + Inhibitor, cultured with hUVECs ([3]; NSC 405 020 10 µM): greater than 2%
- peptide remaining, Media condition, hUVECs ([1]; Figure 3C, 50 µM soluble peptide, 24 h, LC-MS, N = 6): 89%
- Fraction of peptide remaining after 24 hours: hUVEC Media [1, 6]: 0.89
- remaining at 24 h, 50 µM ([1]; hUVEC-conditioned media without cells, no exogenous MMP-14, Figure 7 study, 24 h, LC-MS, N = 3 with technical triplicates, read-out: peptide remaining in hUVEC conditioned media without exogenous MMP-14): 78%
- remaining at 24 h [1, 7]: 93%
- degradation on adding MMP‐14 to the Blank condition [4]: 10–20%
- remaining at 24 h, 50 µM ([2]; Figure 7 study, recombinant MMP-14 0.5 nM, 24 h, LC-MS, N = 3 with technical triplicates, read-out: peptide remaining in hMSC conditioned media with added MMP‐14): 84%
- remaining at 24 h, 50 µM ([2]; Figure 7 study, recombinant MMP-14 0.5 nM, 24 h, LC-MS, N = 3 with technical triplicates, read-out: peptide remaining in hUVEC conditioned media with added MMP‐14): 72%
- degradation in the Blank condition without added MMP‐14 (hydrolytic stability) [5]: negligible degradation
Structure (SMILES): CC[C@H](C)[C@H](NC(=O)CNC(=O)[C@H](CCC(N)=O)NC(=O)[C@@H]1CCCN1C(=O)CNC(=O)CCNC(C)=O)C(=O)N[C@@H](Cc1c[nH]c2ccccc12)C(=O)NCC(=O)N[C@@H](CCC(N)=O)C(=O)NCCC(N)=O [PanMMP, reference compound] (Ac-[βAla]GPQGIWGQ[βAla]-NH2)

- Fraction of peptide remaining after 24 hours: hUVEC Cells ([3]; Figure 3B heatmap, split-and-pool libraries KLVADX1X2ASAE in media on hUVECs, N = 2): 0.91
- degradation in Media condition ([1]; Figure 2B screen, hUVEC-conditioned media, 24 h, LC-MS): less than 3%
- Fraction of peptide remaining after 24 hours: hUVEC Media ([1]; Figure 3B heatmap, split-and-pool libraries KLVADX1X2ASAE in hUVEC-conditioned media without cells, 24 h, LC-MS, ratio to βFβA6, N = 2): 0.98
- remaining at 24 h, 50 µM ([1]; hUVEC-conditioned media without cells (Media condition), Figure 3C, individually synthesized soluble peptide, 50 µM, hUVEC-conditioned media without cells, 24 h, LC-MS, ratio to βFβA6, N = 6, read-out: Fraction of peptide remaining after 24 hours: hUVEC Media): 102%
- remaining at 24 h [1, 7]: 100%
Structure (SMILES): CC(=O)NCCC(=O)N[C@@H](CCCCN)C(=O)N[C@@H](CC(C)C)C(=O)N[C@H](C(=O)N[C@@H](C)C(=O)N[C@@H](CC(=O)O)C(=O)N[C@@H](CC(N)=O)C(=O)N[C@@H](Cc1ccc(O)cc1)C(=O)N[C@@H](C)C(=O)N[C@@H](CO)C(=O)N[C@@H](C)C(=O)N[C@@H](CCC(=O)O)C(=O)NCCC(N)=O)C(C)C [KLVAD-NY] (Ac-[βAla]KLVADNYASAE[βAla]-NH2)

- Fraction of peptide remaining after 24 hours: hUVEC Media [1, 6]: 1.11
- remaining at 24 h ([1]; hUVEC-conditioned media without cells (Media condition), Figure 3B heatmap, split-and-pool libraries KLVADX1X2ASAE in hUVEC-conditioned media without cells, 24 h, LC-MS, ratio to βFβA6, N = 2, read-out: Fraction of peptide remaining after 24 hours: hUVEC Media): 118%
Structure (SMILES): CC(=O)NCCC(=O)N[C@@H](CCCCN)C(=O)N[C@@H](CC(C)C)C(=O)N[C@H](C(=O)N[C@@H](C)C(=O)N[C@@H](CC(=O)O)C(=O)N1CCC[C@H]1C(=O)N[C@@H](Cc1ccc(O)cc1)C(=O)N[C@@H](C)C(=O)N[C@@H](CO)C(=O)N[C@@H](C)C(=O)N[C@@H](CCC(=O)O)C(=O)NCCC(N)=O)C(C)C [KLVAD-PY] (Ac-[βAla]KLVADPYASAE[βAla]-NH2)

Reference: publication PMC12683216, “Using High‐Throughput Screening to Identify Crosslinking Peptides That Control Cell‐Mediated Matrix Degradation” (Advanced Healthcare Materials, 2025)
